The values that follow come from ChEMBL document CHEMBL5393453, “Compositions and methods of using the same for treatment of neurodegenerative and mitochondrial disease” (2021).

A short description of data set [1]: Cytotoxicity against human HeLa cells expressing YFP parkin assessed as highest safety dose by DAPI staining analysis. It counts as toxicity, cell-based. Conditions: read-out: Activity.
A short description of data set [2]: Cytotoxicity against human HeLa cells expressing YFP parkin treated with FCCP/ oligomycin assessed as highest safety dose by DAPI staining analysis. It counts as toxicity, cell-based. Conditions: read-out: Activity.

In the case of `FC(F)(F)c1cc2c(N[C@@H]3c4ccccc4OC[C@@H]3C3CCCOC3)ncnc2[nH]1` (single isomer, unassigned), the MNTC in data set [1] and in data set [2] was 25 µM each time.

In the case of `C[C@@H]1CN([C@H]2COc3cc(F)ccc3[C@@H]2Nc2ncnc3[nH]c(C(F)(F)F)cc23)C[C@H](C)O1` (single isomer, unassigned), the MNTC in data set [1] was 25 µM; in data set [2] it was 9.9 µM.

For the molecule `FC(F)(F)c1cc2c(N[C@H]3c4ccccc4OC[C@H]3C3CCCOC3)ncnc2[nH]1` (mixture of isomers), the MNTC in data set [1] and in data set [2] was 25 µM throughout.

Consider `C[C@@H]1CN([C@@H]2COc3cc(F)ccc3[C@H]2Nc2ncnc3[nH]c(C(F)(F)F)cc23)C[C@H](C)O1`, for which the MNTC was 25 µM in data set [1] and 2.2 µM in data set [2].

In the case of `Fc1ccc2c(c1)CC[C@H](N1C[C@H]3COC[C@@H]3C1)[C@H]2Nc1ncnc2[nH]c(C(F)(F)F)cc12`, the figures for the MNTC in data set [1] and in data set [2] were 25 µM and 9.1 µM, respectively.

For the molecule `C[C@@H]1CN([C@@H]2COc3ccccc3[C@H]2Nc2ncnc3[nH]c(C4CC4)cc23)C[C@H](C)O1`, the MNTC stood at 25 µM in data set [1] and 1.2 µM in data set [2].

As to `Fc1ccc2c(c1)CC[C@H](N1C[C@H]3COC[C@@H]3C1)[C@H]2Nc1ncnc2[nH]c(C3CC3)cc12`, the MNTC in data set [1] worked out at 25 µM; in data set [2], 11.7 µM.

In the case of `C[C@@H]1CN([C@H]2COc3ccccc3[C@@H]2Nc2ncnc3[nH]c(C4CC4)cc23)C[C@H](C)O1` (single isomer, unassigned), the MNTC in data set [1] was 25 µM; in data set [2], 2.3 µM.

As to `C[C@H]1CN([C@@H]2COc3ccccc3[C@H]2Nc2ncnc3[nH]c(C(F)(F)F)cc23)CCO1`, the MNTC in data set [1] and in data set [2] was 19.4 µM in each case.

Take `C[C@@H]1CN([C@H]2CCc3ccccc3[C@@H]2Nc2ncnc3[nH]c(C(F)(F)F)cc23)CCO1` (single isomer, unassigned): the values for the MNTC in data set [1] and in data set [2] were 25 µM and 3.7 µM, respectively.

For the molecule `FC(F)(F)c1cc2c(N[C@@H]3c4ccccc4CC[C@H]3N3C[C@H]4COC[C@H]4C3)ncnc2[nH]1` (single isomer, unassigned), the values for the MNTC in data set [1] and in data set [2] were 25 µM and 9.1 µM, respectively.

With `Fc1ccc2c(c1)OC[C@H](N1C[C@@H]3COC[C@H]3C1)[C@H]2Nc1ncnc2[nH]c(C3CC3)cc12` (single isomer, unassigned), the MNTC in data set [1] stood at 25 µM; in data set [2], 13.9 µM.

Turning to `C[C@@H]1CN([C@H]2COc3cc(F)ccc3[C@@H]2Nc2ncnc3[nH]c(C4CC4)cc23)C[C@H](C)O1` (single isomer, unassigned), the figures for the MNTC in data set [1] and in data set [2] were 25 µM and 2 µM, respectively.

With `c1ccc2c(c1)OC[C@@H](C1CCOCC1)[C@@H]2Nc1ncnc2[nH]c(C3CC3)cc12`, the results for the MNTC in data set [1] and in data set [2] were 25 µM and 3.2 µM, respectively.

`Fc1ccc2c(c1)OC[C@@H](N1C[C@H]3COC[C@H]3C1)[C@@H]2Nc1ncnc2[nH]c(C3CC3)cc12`: the MNTC turned out to be 25 µM in data set [1] and 16 µM in data set [2].

Consider `COC[C@@H]1CCN([C@H]2COc3ccccc3[C@@H]2Nc2ncnc3[nH]c(C(F)(F)F)cc23)C1` (single isomer, unassigned), for which the MNTC in data set [1] stood at 25 µM; in data set [2] it was 3.3 µM.

As for `C[C@H]1CN([C@H]2CCc3ccccc3[C@@H]2Nc2ncnc3[nH]c(C4CC4)cc23)CCO1` (single isomer, unassigned), the MNTC in data set [1] turned out to be 25 µM; in data set [2] it was 3.5 µM.

With `C[C@@H]1CN([C@H]2COc3ccccc3[C@@H]2Nc2ncnc3[nH]c(C(F)(F)F)cc23)C[C@H](C)O1` (single isomer, unassigned), the MNTC in data set [1] turned out to be 25 µM; in data set [2], 7.1 µM.

With `Fc1ccc2c(c1)CC[C@H](N1C[C@H]3COC[C@H]3C1)[C@H]2Nc1ncnc2[nH]c(C3CC3)cc12`, the MNTC in data set [1] was 25 µM; in data set [2], 10.3 µM.

For `Fc1ccc2c(c1)CC[C@H](N1C[C@@H]3COC[C@H]3C1)[C@H]2Nc1ncnc2[nH]c(C3CC3)cc12`, the MNTC in data set [1] and in data set [2] was 25 µM throughout.

With `COC1CN([C@H]2COc3ccccc3[C@@H]2Nc2ncnc3[nH]c(C4CC4)cc23)C1`, the MNTC in data set [1] and in data set [2] was 25 µM in each case.

On to `C[C@@H]1CN([C@@H]2COc3ccccc3[C@H]2Nc2ncnc3[nH]c(C4CC4)cc23)CCO1`, for which the MNTC in data set [1] was 25 µM; in data set [2] it was 1.7 µM.

For the molecule `FC(F)(F)c1cc2c(NC3c4ccccc4OCC3N3C[C@@H]4COC[C@H]4C3)ncnc2[nH]1` (some centres not stated), the MNTC in data set [1] and in data set [2] was 25 µM each time.

`FC(F)(F)c1cc2c(N[C@@H]3c4ccccc4OC[C@H]3C3CCOCC3)ncnc2[nH]1` (single isomer, unassigned): the MNTC in data set [1] was 25 µM; in data set [2] it was 4.7 µM.

As to `FC(F)(F)c1cc2c(NC3c4ccccc4OCC3N3C[C@H]4COC[C@@H]4C3)ncnc2[nH]1` (some centres not stated), the MNTC in data set [1] and in data set [2] was 25 µM each time.

`FC(F)(F)c1cc2c(N[C@H]3c4ccccc4OC[C@@H]3N3C[C@H]4COC[C@H]4C3)ncnc2[nH]1`: the MNTC in data set [1] and in data set [2] was 25 µM throughout.

On to `c1ccc2c(c1)CC[C@H](C1CCOCC1)[C@H]2Nc1ncnc2[nH]c(C3CC3)cc12` (single isomer, unassigned), for which the MNTC in data set [1] worked out at 25 µM; in data set [2], 2.1 µM.

Take `c1ccc2c(c1)CC[C@H](N1C[C@H]3COC[C@H]3C1)[C@H]2Nc1ncnc2[nH]c(C3CC3)cc12`: the MNTC in data set [1] came to 25 µM; in data set [2] it was 0.9 µM.

`C[C@@H]1CN([C@@H]2COc3ccccc3[C@H]2Nc2ncnc3[nH]c(C(F)(F)F)cc23)CCO1`: the MNTC came to 25 µM in data set [1] and 9.7 µM in data set [2].

Consider `C[C@H]1CN([C@H]2COc3ccccc3[C@@H]2Nc2ncnc3[nH]c(C4CC4)cc23)CCO1`, for which the values for the MNTC in data set [1] and in data set [2] were 25 µM and 15.1 µM, respectively.

Turning to `c1ccc2c(c1)CC[C@H](N1CCOCC1)[C@H]2Nc1ncnc2[nH]c(C3CC3)cc12`, the MNTC in data set [1] came to 25 µM; in data set [2], 2.8 µM.

For `C[C@@H]1CN([C@H]2COc3cc(F)ccc3[C@@H]2Nc2ncnc3[nH]c(C4CC4)cc23)CCO1`, the MNTC in data set [1] came out at 16.7 µM; in data set [2], 2 µM.

As to `Fc1ccc2c(c1)CC[C@@H](N1C[C@H]3COC[C@H]3C1)[C@@H]2Nc1ncnc2[nH]c(C(F)(F)F)cc12` (single isomer, unassigned), the MNTC in data set [1] and in data set [2] was 8.3 µM each time.

`COC[C@@H]1CCN(C2COc3ccccc3C2Nc2ncnc3[nH]c(C4CC4)cc23)C1` (single isomer, unassigned): the MNTC was 25 µM in data set [1] and 1.4 µM in data set [2].

Turning to `c1ccc2c(c1)CC[C@H](N1C[C@@H]3COC[C@H]3C1)[C@H]2Nc1ncnc2[nH]c(C3CC3)cc12`, the MNTC in data set [1] stood at 25 µM; in data set [2] it was 3 µM.

With `CO[C@@H]1CCN([C@H]2COc3ccccc3[C@@H]2Nc2ncnc3[nH]c(C(F)(F)F)cc23)C1`, the results for the MNTC in data set [1] and in data set [2] were 25 µM and 3.4 µM, respectively.

Consider `COC[C@H]1CCN([C@H]2COc3ccccc3[C@@H]2Nc2ncnc3[nH]c(C4CC4)cc23)C1`, for which the MNTC in data set [1] was determined as 25 µM; in data set [2] it was 3.6 µM.

Turning to `C[C@@H]1CN([C@@H]2COc3ccccc3[C@H]2Nc2ncnc3[nH]c(C(F)(F)F)cc23)C[C@H](C)O1`, the MNTC was determined as 25 µM in data set [1] and 2.3 µM in data set [2].

Turning to `FC(F)(F)c1cc2c(N[C@H]3c4ccccc4OC[C@@H]3C3CCOCC3)ncnc2[nH]1` (single isomer, unassigned), the MNTC in data set [1] and in data set [2] was 25 µM throughout.

As to `[2H]C([2H])([2H])OC1CN([C@H]2COc3ccccc3[C@@H]2Nc2ncnc3[nH]c(C(F)(F)F)cc23)C1`, the MNTC is 25 µM in data set [1] and 19.8 µM in data set [2].

For `c1ccc2c(c1)OC[C@@H](N1CCOCC1)[C@@H]2Nc1ncnc2[nH]c(C3CC3)cc12` (single isomer, unassigned), in data set [1], the MNTC turned out to be 25 µM.

For `FC1COCCC1[C@H]1COc2ccccc2[C@@H]1Nc1ncnc2[nH]c(C(F)(F)F)cc12` (single isomer, unassigned), the MNTC in data set [1] turned out to be 25 µM.

Turning to `CO[C@H]1CCN([C@H]2COc3ccccc3[C@@H]2Nc2ncnc3[nH]c(C(F)(F)F)cc23)C1`, the MNTC in data set [1] worked out at 25 µM; in data set [2], 1.1 µM.

Take `c1ccc2c(c1)OCC(N1CC3CCOC3C1)C2Nc1ncnc2[nH]c(C3CC3)cc12` (single isomer, unassigned): the MNTC in data set [1] stood at 25 µM.

As for `c1ccc2c(c1)OC[C@H](N1C[C@H]3COC[C@H]3C1)[C@H]2Nc1ncnc2[nH]c(C3CC3)cc12` (single isomer, unassigned), the MNTC in data set [1] stood at 25 µM.

Turning to `C[C@@H]1CN([C@@H]2COc3cc(F)ccc3[C@H]2Nc2ncnc3[nH]c(C4CC4)cc23)C[C@H](C)O1`, the MNTC in data set [1] stood at 25 µM; in data set [2] it was 1.2 µM.

On to `CO[C@H]1CCN([C@H]2COc3ccccc3[C@@H]2Nc2ncnc3[nH]c(C4CC4)cc23)C1`, for which the values for the MNTC in data set [1] and in data set [2] were 25 µM and 1.1 µM, respectively.

With `FC(F)(F)c1cc2c(N[C@@H]3c4ccccc4OC[C@H]3C3CCCOC3)ncnc2[nH]1` (some centres not stated), in data set [1], the MNTC was 25 µM.

For the molecule `c1ccc2c(c1)CC[C@@H](N1CCOCC1)[C@@H]2Nc1ncnc2[nH]c(C3CC3)cc12` (single isomer, unassigned), the MNTC in data set [1] and in data set [2] was 25 µM each time.

As to `Fc1cccc2c1CC[C@@H](N1C[C@H]3COC[C@H]3C1)[C@@H]2Nc1ncnc2[nH]c(C3CC3)cc12` (single isomer, unassigned), the MNTC in data set [1] was found to be 25 µM.

For the molecule `c1ccc2c(c1)CC[C@@H](N1C[C@H]3COC[C@@H]3C1)[C@@H]2Nc1ncnc2[nH]c(C3CC3)cc12`, the MNTC in data set [1] stood at 25 µM.

In the case of `Fc1ccc2c(c1)CC[C@H](N1C[C@H]3COC[C@H]3C1)[C@H]2Nc1ncnc2[nH]c(C(F)(F)F)cc12` (single isomer, unassigned), the MNTC in data set [1] was 25 µM.

On to `C[S@](=N)(=O)C1CN([C@H]2COc3ccccc3[C@@H]2Nc2ncnc3[nH]c(C(F)(F)F)cc23)C1` (single isomer, unassigned), for which the MNTC in data set [1] was 25 µM.
